A short description of data set [1]: Total plasma clearance in rat. Type of data set: ADME, cell-free.
A short description of data set [2]: Partition coefficient, logD of compound at pH 7 by HPLC analysis. Format: physicochemical. The following applies: octanol/water.
Data set [3] can be described thus: Volume of distribution in rat. Format: ADME. The following applies: in vivo.
Data set [4] in a line: Half life in human liver microsomes. Format: ADME. On the technique in general: Microsomes from liver hold many membrane-bound enzymes, among them those of drug oxidation.
The target in data set [5] is MAP/microtubule affinity-regulating kinase 3 (Homo sapiens, UniProt P27448). Put plainly: Inhibition of MARK3 (unknown origin).
The nature of data set [6]: Half life in rat liver microsomes. Type of data set: ADME.
A short description of data set [7]: Drug metabolism in rat hepatocytes assessed as oxidation. Type of data set: ADME, cell-based, Hepatocyte.
Data set [8] is described as follows: Half life in dog liver microsomes. Format: ADME, Canis lupus familiaris.
Data set [9] is described as follows: Total plasma clearance in dog. Format: ADME, cell-free, Canis lupus familiaris.
The nature of data set [10]: Drug excretion in bile duct-cannulated rat bile after 8 hrs by chromatographic analysis. Type of data set: ADME, tissue-based. The following applies: read-out: Drug excretion.
A short description of data set [11]: Drug recovery in bile duct-cannulated rat bile after 8 hrs by chromatographic analysis. Type of data set: ADME, tissue-based. The following applies: read-out: Drug recovery.
A short description of data set [12]: Stability in human liver cytosol. Type of data set: ADME.
Data set [13] is described as follows: Drug recovery in bile duct-cannulated rat urine after 8 hrs by chromatographic analysis. The following applies: read-out: Drug recovery. Format: ADME.
Data set [14] is described as follows: Drug excretion in bile duct-cannulated rat urine after 8 hrs by chromatographic analysis. Type of data set: ADME. The following applies: read-out: Drug excretion.
A short description of data set [15]: Stability in rat liver cytosol. Format: ADME.
Data set [16] can be described thus: Drug metabolism in rat hepatocytes assessed as glucuronidation. Type of data set: ADME, cell-based, Hepatocyte.
Data set [17] in a line: Drug metabolism in rat liver microsomes assessed as lactam hydrolysis. Format: ADME.
Data set [18] in a line: Drug metabolism in rat liver microsomes assessed as oxidative metabolite formation. Format: ADME.
Data set [19] can be described thus: Drug metabolism in human liver microsomes assessed as lactam hydrolysis. Format: ADME.
A short description of data set [20]: Drug metabolism in human liver microsomes assessed as oxidative metabolite formation. Type of data set: ADME.

MAP/microtubule affinity-regulating kinase 3, sequence (P27448 whole entry): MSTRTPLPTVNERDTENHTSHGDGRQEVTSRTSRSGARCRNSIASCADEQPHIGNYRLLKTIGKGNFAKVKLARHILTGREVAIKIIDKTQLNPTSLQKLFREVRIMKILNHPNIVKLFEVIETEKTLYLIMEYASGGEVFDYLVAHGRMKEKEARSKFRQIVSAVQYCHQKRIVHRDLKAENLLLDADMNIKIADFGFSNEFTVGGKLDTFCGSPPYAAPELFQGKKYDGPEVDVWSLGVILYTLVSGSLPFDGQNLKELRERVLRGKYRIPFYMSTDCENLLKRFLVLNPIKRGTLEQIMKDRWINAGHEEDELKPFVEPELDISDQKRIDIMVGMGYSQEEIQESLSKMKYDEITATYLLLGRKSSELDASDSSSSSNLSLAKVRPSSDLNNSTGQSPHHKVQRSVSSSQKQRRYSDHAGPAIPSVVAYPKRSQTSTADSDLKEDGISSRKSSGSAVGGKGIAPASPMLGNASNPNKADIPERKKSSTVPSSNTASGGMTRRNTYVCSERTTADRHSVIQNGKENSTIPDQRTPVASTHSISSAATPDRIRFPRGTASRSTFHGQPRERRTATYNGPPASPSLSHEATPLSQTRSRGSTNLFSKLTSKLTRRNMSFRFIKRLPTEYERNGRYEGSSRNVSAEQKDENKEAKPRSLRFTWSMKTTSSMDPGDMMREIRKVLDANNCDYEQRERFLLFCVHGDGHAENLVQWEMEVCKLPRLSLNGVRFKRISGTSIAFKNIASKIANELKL

Regarding `CC[C@H](C)N1C(=O)C(C)(C)c2cnc(Nc3ccc(CN4CC(C)OC(C)C4)cc3)nc21` (stereo partly specified), the clearance in data set [1] was 269 mL/min/kg. In [2], this compound displayed a logD of 3.98. The compound also came in with a Vd in data set [3] of 14 L/kg.

In the case of `CC(=O)N1CCC(N2C(=O)C(C)(C)c3cnc(Nc4ccc(F)cc4)nc32)CC1`, the clearance in data set [1] was found to be 37 mL/min/kg. The same compound came in with a logD in data set [2] of 2.5. The half-life in [4] is 51 min; in data set [6], > 60 min. In [5], the IC50 was 2800 nM. Further, in data set [3], the volume of distribution (Vd) was 1.6 L/kg.

In [1], `CC(=O)N1CCC(N2C(=O)C(C)(C)c3cnc(Nc4cccnc4)nc32)CC1` displayed a clearance of 11 mL/min/kg. Further, the log distribution coefficient (logD) in data set [2] is 1.18. The half-life in data set [4] and in data set [6] was > 60 min in each case. For the same compound, the half-maximal inhibitory concentration (IC50) in data set [5] was determined as 2100 nM. This compound yielded a Vd in [3] of 1.4 L/kg.

With `CC[C@H](C)N1C(=O)C2(CC2)c2cnc(Nc3cccnc3)nc21`, the clearance in [1] was 81 mL/min/kg. The compound also came in with a logD in data set [2] of 2.3. Also, in [7], the Drug metabolism entry was “Metabolite_Detected”. In data set [5], this compound came in with an IC50 of 60 nM. This compound showed a Vd in data set [3] of 2.9 L/kg. The half-life in [6] was 25 min.

With `CC[C@H](C)N1C(=O)C(C)(C)c2cnc(Nc3ccc(CNC4CCCOC4)cc3)nc21` (stereo partly specified), in data set [1], the clearance stood at 188 mL/min/kg. The same compound showed a logD in data set [2] of 2.79. Further, the distribution volume (Vd) in data set [3] was 96 L/kg.

`CC[C@H](C)N1C(=O)C(C)(C)c2cnc(Nc3cccnc3)nc21` registered a logD in data set [2] of 2.56. In data set [3], this compound showed a Vd of 5.2 L/kg.

As for `CC[C@H](C)N1C(=O)C(C)(C)c2cnc(Nc3ccc(S(C)(=O)=O)cc3)nc21`, the figures for the clearance in [1] and in data set [9] were 84 mL/min/kg and 3 mL/min/kg, respectively. Besides, the log distribution coefficient (logD) in [2] turned out to be 3.09. In addition, the half-life in data set [8] worked out at 80 min; in data set [6] it was 26 min. In data set [5], this compound had an IC50 of 120 nM.

Regarding `[3H]c1nc(Nc2cccnc2)nc2c1C(C)(C)C(=O)N2[C@H](C)CC`, the dose excreted at 8 h was > 95% in data set [10], 60 to 90% in [11], 60 to 90% in data set [13] and > 95% in [14]. Besides, the Stability result in [12] and in data set [15] was “Stable” throughout.

`C[C@@H](c1ccc(F)cc1)N1C(=O)C(C)(C)c2cnc(Nc3cccnc3)nc21`: the clearance in [1] was 154 mL/min/kg. Besides, in data set [2], the logD is 2.81. In data set [3], this compound came in with a Vd of 6.8 L/kg.

On to `CC[C@H](C)N1C(=O)C(C)(C)c2cnc(Nc3ccc(-c4nnc(C)[nH]4)cc3)nc21`, for which the logD in data set [2] was 2.21. In addition, the half-life was found to be 80 min in data set [8] and 50 min in [6]. The compound also displayed an IC50 in [5] of 80 nM. In [9], this compound displayed a clearance of 10 mL/min/kg.

In turn, `CC1(C)C(=O)N(C2CCCCC2)c2nc(Nc3cccnc3)ncc21` returned a clearance in [1] of 47 mL/min/kg. Also, the logD in data set [2] turned out to be 2.82. Also, the Vd in [3] was 2.8 L/kg.

On to `CC1(C)C(=O)N([C@H]2CCc3c(O)cccc32)c2nc(Nc3ccccc3)ncc21`, for which the Drug metabolism result in data set [16] and in [7] was “Metabolite_Detected” throughout.

`CC(=O)N1CCC(N2C(=O)C(C)(C)c3cnc(Nc4ccccc4)nc32)CC1` displayed a clearance in data set [1] of 37 mL/min/kg. The same compound showed a logD in data set [2] of 1.6. Moreover, the half-life stood at 30 min in data set [4] and 38 min in data set [6]. Moreover, the Vd in [3] was determined as 1.1 L/kg.

As for `CC[C@H](C)N1C(=O)C(C)(C)c2cnc(Nc3ccc(CN4CCN(C)CC4)cc3)nc21`, the clearance in data set [1] stood at 65 mL/min/kg. In data set [2], this compound yielded a logD of 2.54. Also, the Vd in [3] was determined as 35 L/kg.

For the compound `CC[C@H](C)N1C(=O)C(C)(C)c2cnc(Nc3ccc(CN4CCC(=O)N(C)CC4)cc3)nc21`, in data set [1], the clearance came out at 135 mL/min/kg. Moreover, the logD in [2] was 2.68. Also, the Vd in [3] is 3 L/kg.

Consider `CC1(C)C(=O)N(C2CCCCC2)c2nc(Nc3cccc(CN4CCOCC4)c3)ncc21`, for which the Drug metabolism result in [17], in data set [18], in data set [19] and in [20] was “Metabolite_Detected” in each case.

As usually defined, the clearance is the rate of elimination divided by the concentration. For orientation: logD means the decadic logarithm of the distribution of all forms, ionised or not, between an organic phase and buffer at a given pH. Broadly, the Vd is the apparent volume that relates the amount in the body to the concentration in plasma or blood. The low end stands for confinement near the circulation, the high end for extensive tissue distribution. Broadly, the half-life is the time needed for the level to fall by half in the phase considered. As usually defined, the IC50 is the concentration needed to halve the response being measured. A low value points to inhibition by little substance.

The values above are taken from ChEMBL document CHEMBL3875190, “MARK inhibitors: Declaring a No-Go decision on a chemical series based on extensive DMPK experimentation” (Bioorg Med Chem Lett, 2017).
